# Test results as given in ChEMBL document CHEMBL4651402, “Screening of ~5500 FDA-approved drugs and clinical candidates for anti-SARS-CoV-2 activity” (2021).
# What was measured:
# SARS-CoV-2 [1] = experiment: microbe, parasite or virus in culture; assay type: functional, organism-based, Chlorocebus sabaeus, Vero C1008; conditions: Severe acute respiratory syndrome coronavirus 2, Vero C1008, 48 h
# in vitro = conditions: chlorocebus sabaeus, Vero E6 (Vero C1008) cells
# SARS-CoV-2 [2] = experiment: microbe, parasite or virus in culture; conditions: Severe acute respiratory syndrome coronavirus 2, Vero C1008, 48 h
SMILES,IC50 (SARS-CoV-2 [1]; read-out: IC50),IC50 (SARS-CoV-2 [1]; read-out: pIC50 (converted)),CC50 at 48 h (in vitro; CC50),CC50 at 48 h (in vitro; pCC50),IC50 (SARS-CoV-2 [2]),IC50 (SARS-CoV-2 [2]; read-out: pIC50 (converted))
COc1ccc(C[C@@H]2c3cc(OC)c(OC)cc3CC[N@+]2(C)CCC(=O)OCCCCCOC(=O)CC[N@@+]2(C)CCc3cc(OC)c(OC)cc3[C@H]2Cc2ccc(OC)c(OC)c2)cc1OC,> 20 µM,> 20 µM,> 20 µM,> 20 µM,,
Cc1[nH]c(/C=C2/C(=O)Nc3ccccc32)c(C)c1CCC(=O)O,> 50.1 µM,> 50.1 µM,> 50.1 µM,> 50.1 µM,~2 µM,~2 µM
COC(=O)N[C@H](C(=O)N1CCC[C@H]1c1ncc(-c2ccc(-c3ccc(-c4cnc([C@@H]5CCCN5C(=O)[C@@H](NC(=O)OC)C(C)C)[nH]4)cc3)cc2)[nH]1)C(C)C,> 100 µM,> 100 µM,~19.7 µM,~19.5 µM,> 100 µM,> 100 µM
CC(C)[C@H](N/C(=N\S(=O)(=O)c1ccc(Cl)cc1)N1C[C@@H](c2ccccc2)C(c2ccc(Cl)cc2)=N1)C(N)=O,> 50.1 µM,> 50.1 µM,16 µM,15.8 µM,> 100 µM,> 100 µM
COc1ccc2c(c1)N(CC(C)CN(C)C)c1ccccc1S2 (configuration not stated),> 100 µM,> 100 µM,22.9 µM,22.9 µM,> 100 µM,> 100 µM
COc1cc2c3cc1Oc1c(OC)c(OC)cc4c1[C@@H](Cc1cccc(c1)Oc1ccc(c(O)c1)C[C@@H]3N(C)CC2)N(C)CC4,> 6.31 µM,> 6.31 µM,10.2 µM,10.2 µM,8.51 µM,8.51 µM
COC(=O)N[C@H](C(=O)N1CCC[C@H]1c1nc(-c2ccc3cc(-c4ccc5[nH]c([C@@H]6CCCN6C(=O)[C@@H](NC(=O)OC)C(C)C)nc5c4)ccc3c2)c[nH]1)C(C)C,> 100 µM,> 100 µM,12.7 µM,12.6 µM,> 100 µM,> 100 µM
CCC1CN2CCC1CC2C(O)c1ccnc2ccc(OCCC(C)C)cc12 (configuration not stated),> 100 µM,> 100 µM,11.4 µM,11.2 µM,> 100 µM,> 100 µM
COc1ccc(C#Cc2ccccc2)c(CCC(C)N(C)CCc2ccc(OC)c(OC)c2)c1 (configuration not stated),> 100 µM,> 100 µM,4.84 µM,4.79 µM,4.27 µM,4.27 µM
CN(C)C/C=C(\c1ccc(Br)cc1)c1cccnc1,,,> 10 µM,> 10 µM,> 20 µM,> 20 µM
CCC(CC)COC(=O)[C@H](C)N[P@](=O)(OC[C@H]1O[C@@](C#N)(c2ccc3c(N)ncnn23)[C@H](O)[C@@H]1O)Oc1ccccc1,~2.6 µM,~2.57 µM,95.5 µM,95.5 µM,~4.64 µM,~4.68 µM
O=C1NCN(c2ccccc2)C12CCN(CCCC(c1ccc(F)cc1)c1ccc(F)cc1)CC2,> 100 µM,> 100 µM,7 µM,6.92 µM,> 100 µM,> 100 µM
CCN(CCO)CCC[C@H](C)Nc1ccnc2cc(Cl)ccc12,~18.8 µM,~18.6 µM,> 50.1 µM,> 50.1 µM,12.7 µM,12.6 µM
O=C(NO)c1ccc(C2=Nc3ccccc3Oc3ccccc32)cc1,> 100 µM,> 100 µM,1.55 µM,1.55 µM,> 100 µM,> 100 µM
CC(CN(C)C)CN1c2ccccc2Sc2ccccc21 (configuration not stated),> 25.1 µM,> 25.1 µM,21.4 µM,21.4 µM,17.4 µM,17.4 µM
CN1CCC[C@@H](CN2c3ccccc3Sc3ccccc32)C1,> 100 µM,> 100 µM,11.8 µM,11.7 µM,> 20 µM,> 20 µM
OC(Cn1cncn1)(Cn1cnc(/C=C/c2ccc(OCC(F)(F)C(F)F)cc2)n1)c1ccc(F)cc1F (configuration not stated),> 100 µM,> 100 µM,25.7 µM,25.7 µM,> 100 µM,> 100 µM

SMILES,IC50 (SARS-CoV-2 [1]; read-out: IC50),IC50 (SARS-CoV-2 [1]; read-out: pIC50 (converted)),CC50 at 48 h (in vitro; CC50),CC50 at 48 h (in vitro; pCC50),IC50 (SARS-CoV-2 [2]),IC50 (SARS-CoV-2 [2]; read-out: pIC50 (converted))
CC(=O)NC1(c2ccccc2)CCN(CCC(CN(C)C(=O)c2ccccc2)c2ccc(Cl)c(Cl)c2)CC1 (configuration not stated),> 100 µM,> 100 µM,23.4 µM,23.4 µM,> 100 µM,> 100 µM
CC(C)[C@H](C(=O)Nc1ccc(C(=O)NO)cc1)c1ccccc1 [AR-42],,,0.851 µM,0.851 µM,> 20 µM,> 20 µM
COc1ccc(CCN2CCC(Nc3nc4ccccc4n3Cc3ccc(F)cc3)CC2)cc1 [ASTEMIZOLE],,,7.5 µM,7.41 µM,,
CC[C@@H]1C(=O)N(C)c2cnc(Nc3ccc(C(=O)NC4CCN(C)CC4)cc3OC)nc2N1C1CCCC1 [BI-2536],,,0.603 µM,0.603 µM,,
CC1(C)S[C@@H]2[C@H](NC(=O)C(C(=O)O)c3ccccc3)C(=O)N2[C@H]1C(=O)O (some centres not stated) [CARBENICILLIN],> 20 µM,> 20 µM,> 20 µM,> 20 µM,,
CO/N=C(\C(=O)N[C@@H]1C(=O)N2C(C(=O)OC(C)OC(C)=O)=C(COC(N)=O)CS[C@H]12)c1ccco1 (some centres not stated) [CEFUROXIME AXETIL],> 20 µM,> 20 µM,> 20 µM,> 20 µM,,
CN(C)CCCN1c2ccccc2CCc2ccc(Cl)cc21 [CLOMIPRAMINE],,,16 µM,15.8 µM,,
O=C1OC2(c3ccc(O)cc3Oc3cc(O)ccc32)c2ccccc21 [FLUORESCEIN],> 0.309 µM,> 0.309 µM,> 20 µM,> 20 µM,,
OCCN1CCN(CCCN2c3ccccc3Sc3ccc(C(F)(F)F)cc32)CC1 [FLUPHENAZINE],,,7.76 µM,7.76 µM,,
CCC(C)n1ncn(-c2ccc(N3CCN(c4ccc(OCC5COC(Cn6cncn6)(c6ccc(Cl)cc6Cl)O5)cc4)CC3)cc2)c1=O (configuration not stated) [ITRACONAZOLE],,,> 100 µM,> 100 µM,> 100 µM,> 100 µM
CCOC(=O)C1=C(C)NC(C)=C(C(=O)OCC)C1c1ccccc1/C=C/C(=O)OC(C)(C)C [LACIDIPINE],,,7.24 µM,7.24 µM,> 10 µM,> 10 µM
CN(C)C(=O)C(CCN1CCC(O)(c2ccc(Cl)cc2)CC1)(c1ccccc1)c1ccccc1 [LOPERAMIDE],,,~22 µM,~21.9 µM,,
CCOC(=O)O[C@]1(C(=O)OCCl)CC[C@H]2[C@@H]3CCC4=CC(=O)C=C[C@]4(C)[C@H]3[C@@H](O)C[C@@]21C [LOTEPREDNOL ETABONATE],> 20 µM,> 20 µM,> 20 µM,> 20 µM,,
CCOc1cc2ncc(C#N)c(Nc3ccc(OCc4ccccn4)c(Cl)c3)c2cc1NC(=O)/C=C/CN(C)C [NERATINIB],> 10 µM,> 10 µM,> 10 µM,> 10 µM,,
CSc1ccc2c(c1)N(CCC1CCCCN1C)c1ccccc1S2 (configuration not stated) [THIORIDAZINE],,,~6.38 µM,~6.31 µM,,
CCC1=C[C@@H]2CN(C1)Cc1c([nH]c3ccccc13)[C@@](C(=O)OC)(c1cc3c(cc1OC)N(C)[C@H]1[C@@](O)(C(=O)OC)[C@H](OC(C)=O)[C@]4(CC)C=CCN5CC[C@]31[C@@H]54)C2 [VINORELBINE],> 20 µM,> 20 µM,14.5 µM,14.5 µM,,
